Laboratory results published in patent publication US20190177279A1, “CARBOXYLIC ACID AROMATIC 1,2-CYCLOPROPYLAMIDES” (Bayer Pharma Aktiengesellschaft, priority 2017, published 2019).
Like-named read-outs stand apart in the source and are kept apart here. Values belong to the molecule of their own block, whether it stands above or below them.

Legend:
[1] = prior art, Bioorg Med Chem Lett 2010; cited from earlier work
[2] = prior art, Bioorg Med Chem Lett 2010; cited from earlier work; remark: listed apart in the source
[3] = prior art, Bioorg Med Chem Lett 2010; cited from earlier work; remark: listed apart in the source
[4] = prior art, Bioorg Med Chem Lett 2010; cited from earlier work; remark: listed apart in the source
[5] = target: T1, native human B1 receptors (Homo sapiens, UniProt P46663); test: Calcium flux assay (FLIPR) with IMR-90 human foetal lung fibroblasts after IL-1 induction; type: cell-based; conditions: IMR-90 fibroblasts induced with human IL-1; 0.1% BSA in assay buffer; agonist Lys-(Des-Arg)-Bradykinin at EC90; read-out: hB1 IC50 IMR90
T1 construct: which express native human B1 receptors after induction with human IL-1; Coriell Institute; host or cells: IMR-90 human foetal lung fibroblasts, induced with human IL-1
T1 sequence (P46663 1-353): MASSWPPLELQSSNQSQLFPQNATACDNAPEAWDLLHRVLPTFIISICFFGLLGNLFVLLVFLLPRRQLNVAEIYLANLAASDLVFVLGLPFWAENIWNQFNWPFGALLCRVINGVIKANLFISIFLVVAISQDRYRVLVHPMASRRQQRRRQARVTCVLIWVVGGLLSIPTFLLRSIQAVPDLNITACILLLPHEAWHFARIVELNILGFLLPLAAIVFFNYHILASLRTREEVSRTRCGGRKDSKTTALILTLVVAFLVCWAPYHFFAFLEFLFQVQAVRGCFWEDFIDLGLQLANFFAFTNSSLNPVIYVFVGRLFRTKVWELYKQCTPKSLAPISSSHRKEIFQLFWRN
Experimental: Calcium Flux Assay (FLIPR) with Human Fibroblasts for Bradykinin B1 Receptor Antagonist (hB1 IMR-90 IC50)
The Calcium flux Assay was carried out utilising IMR-90 human foetal lung fibroblasts (American Type Culture Collection, Rockville, Md.; and Coriell Institute, Camden, N.J.), which express native human B1 receptors after induction with human IL-1[…].
The fibroblasts were cultured in complete growth media comprised of Dulbecco's modified Eagle's medium (DMEM; Sigma) containing 10% foetal bovine serum, 4 mM L-glutamine, and 1% nonessential amino acids. The cells were maintained in a humidified atmosphere with 5% CO2 at 37° C. and were sub-cultured at a ratio of 1:3, every other day.
For the assay, IMR-90 fibroblasts were harvested using TrypLE Express (GIBCO/Invitrogen) and seeded into 384-well plates (Corning Cellbinding Surface, Cat. 3683) at a density of 15000 cells/well. The following day, cells were treated with 0.35 ng/mL human IL-1[…] in 10% FBS/MEM for 3 h to up-regulate B1 receptors. Induced cells were loaded with fluorescent calcium indicator by incubation with 2.5 μM Fluo-4/AM (Invitrogen) at 37° C., 5% CO2 for 2 h in the presence of 2.5 mM probenecid in 1% FBS/MEM. Extracellular dye was removed by washing with assay buffer (2.5 mM probenecid and 0.1% BSA in 20 mM HEPES/HBSS without bicarbonate or phenol red, pH 7.5). Example compounds were assayed at 8 concentrations in triplicate. After addition of example compounds to the cell plate and incubation for 30 min at 28° C., the addition of B1 agonist Lys-(Des-Arg)-Bradykinin (Bachem, Brackley) at a final concentration of EC90 was carried out on the FLIPR instrument while continuously monitoring Ca^2+-dependent fluorescence at 538 nm. A peptide antagonist Lys-(Des-Arg-Leu)-Bradykinin (Bachem, Brackley) at 20 μM was used to determine the full inhibition as control. IC50 values were determined by the same way described for the FLIPR assay with recombinant cells.

human B1 receptor = target: T2, human B1 receptor (Homo sapiens, UniProt P46663); test: Calcium flux assay (FLIPR) with recombinant CHO-K1 cells expressing human B1 receptor; type: cell-based; conditions: agonist Lys-(Des-Arg)-Bradykinin
T2 construct: host or cells: CHO-K1
T2 sequence (P46663 1-353): T1 sequence (P46663 1-353)
Experimental: The potency to inhibit the Bradykinin B1 receptors was determined for the example compounds of this invention in a cell-based fluorescent calcium-mobilisation assay. The assay measures the ability of example compounds to inhibit Bradykinin B1 receptor agonist-induced increase of intracellular free Ca^2+ in the cell line expressing B1 receptor. Specifically, calcium indicator—loaded cells are pre-incubated in the absence or presence of different concentrations of example compounds followed by the stimulation with a selective B1 receptor agonist peptide. The change of the intracellular Ca^2+ concentration is monitored with a fluorescent plate reader FLIPR (Molecular Devices).
Calcium flux Assay (FLIPR) with recombinant cells for Bradykinin B1 receptor antagonist, either in the presence (hB1 IC50) or absence (hB1 free IC50) of 0.1% BSA in assay buffer
CHO-K1 cell line expressing human B1 receptor was purchased from Euroscreen (Gosselies, Belgium, with reference name hB1-D1). The cells were grown in Nutrient Mixture Ham's F12 (Sigma) containing 10% Foetal bovine serum (Sigma) and 400 μg/mL G418 (Sigma), 5 μg/mL puromycin (Sigma).
For the calcium flux assay, 80% confluent cells were detached from the culture vessels with Versene (Gibco), and seeded into 384-well plates (Cell binding Surface; Corning, N.Y.; #3683) at a density of 15,000 cells per well. Cells were seeded in a volume of 50 μL in medium without antibiotics and incubated overnight in a humidified atmosphere with 5% CO2 at 37° C. […] The calcium indicator loaded cells were incubated at 37° C. for 2 hrs. Extracellular dye was then removed and each well was filled with 45 μL of assay buffer. Cell plates were kept in dark until used. Example compounds were assayed at 8 concentrations in triplicate. Serial 10-fold dilutions in 100% DMSO were made at a 100-times higher concentration than the final concentration, and then diluted 1:10 in assay buffer. 5 μL of each diluted compound was added to the well of cell plates (yielding final concentration with 1% DMSO), and incubated for 30 min at 28° C. before the addition of B1 receptor agonist on the FLIPR instrument.
Agonist plates contained the agonist Lys-(Des-Arg)-Bradykinin (Bachem, Brackley) at 3.5×EC90 in assay buffer with 1% DMSO. The addition of agonist 20 μl per well to the assay plate was carried out on the FLIPR instrument while continuously monitoring Ca^2+-dependent fluorescence at 538 nm. A peptide antagonist Lys-(Des-Arg-Leu)-Bradykinin (Bachem, Brackley) at 20 µM was used to determine the full inhibition as control.
Peak fluorescence was used to determine the response to agonist obtained at each concentration of example compound by the following equation:
% Response=100*(RFU(example compound)−RFU(control)/(RFU(DMSO)−RFU(control)) • Control=full inhibition by the peptide antagonist Lys-(Des-Arg-Leu)-Bradykinin at 20 μM
The response values were plotted against the logarithm of the compound concentrations. The compounds were tested in triplicates per plate and mean values were plotted in Excel XLfit to determine IC50 values, percentage of maximal inhibition and the Hill slopes.

[6] = due to metabolic liability; prior art; cited from earlier work
IL-6 secretion = test: Bradykinin B1 receptor agonist-induced secretion of IL-6 in human IMR-90 cells; type: cell-based; conditions: 0.1 μM Lys-[Des-Arg9]Bradykinin and 0.1 μM Sar-[D-Phe8]-des-Arg9-Bradykinin, 5 hours
Excerpt: (§1) Inhibitory Activity on Bradykinin B1 Receptor Agonist-Induced Secretion of IL-6 and IL-8 in Human IMR-90 Cells
(§2) The effect of the compound examples on secretion of the cytokine IL-6 and IL-8 was investigated in the human foetal lung fibroblast IMR-90 cell line. Here the induction of the cytokine secretion was induced by the Bradykinin B1 receptor agonists Lys-[Des-Arg9]Bradykinin (CAS 71800-36-7, Tocris Bioscience) and Sar-[D-Phe8]-des-Arg9-Bradykinin (CAS 126959-88-4, Tocris Bioscience) leading to the activation of the Bradykinin B1-driven signalling pathway. […]
(§3) IMR-90 cells were cultured in Eagle's Minimum Essential Medium (EMEM) containing 2 mM L-glutamine, 1 g/L glucose, 1.5 g/L NaHCO3, 1 mM sodium pyruvate and non-essential amino acids (ATCC, 30-2003™) supplemented with 10% FBS (Biochrom, 50615) and 50 U/mL Penicillin, 50 μg/mL Streptomycin (PAA, P11-010). […] The compound examples were serially diluted in 100% DMSO and evaluated at 8 different concentrations within the range of 3 nM and 10 μM and a final DMSO concentration of 0.4%. […] The amount of IL-6 and IL-8 in the supernatant was determined using the Human ProInflammatory Panel II (4-Plex) (MSD, K15025B) according to manufacturer's instruction. […] The cell viability was measured using the CellTiter-Glo Luminescent Assay (Promega, G7571) following the manufacturers protocol. […]

stimulated IMR-90 cells = test: Cell viability, CellTiter-Glo Luminescent Assay; type: cell-based, human
Experimental: IMR-90 cells were cultured in Eagle's Minimum Essential Medium (EMEM) containing 2 mM L-glutamine, 1 g/L glucose, 1.5 g/L NaHCO3, 1 mM sodium pyruvate and non-essential amino acids (ATCC, 30-2003™) supplemented with 10% FBS (Biochrom, 50615) and 50 U/mL Penicillin, 50 μg/mL Streptomycin (PAA, P11-010). The assay was performed in EMEM and a cell density of […] IMR-90 cells/96-well. The compound examples were serially diluted in 100% DMSO and evaluated at 8 different concentrations within the range of 3 nM and 10 μM and a final DMSO concentration of 0.4%. The IMR-90 cells were incubated with the respective concentration of the compound for 30 min. […] The amount of IL-6 and IL-8 in the supernatant was determined using the Human ProInflammatory Panel II (4-Plex) (MSD, K15025B) according to manufacturer's instruction. […] Plates were washed three times with phosphate-buffered saline (PBS; 137 mM NaCl, 2.7 mM KCl, 6.5 mM Na2HP04, 1.7 mM KH2P04) containing 0.05% Tween-20 (Bio-Rad, 161-0781) and electrochemiluminescence detected using the MSD Sector Imager 6000 plate reader. The cell viability was measured using the CellTiter-Glo Luminescent Assay (Promega, G7571) following the manufacturers protocol. […] After incubation and shaking for 10 minutes luminescent signal was measured which was proportional to the amount of ATP present. […]

IL-8 secretion = test: Bradykinin B1 receptor agonist-induced secretion of IL-8 in human IMR-90 cells; type: cell-based; conditions: 0.1 μM Lys-[Des-Arg9]Bradykinin and 0.1 μM Sar-[D-Phe8]-des-Arg9-Bradykinin, 5 hours
Excerpt: as §1, §2, §3

[7] = absence of 0.1% BSA in assay buffer, read-out: hB1 free IC50

IC50 [5]: 4730 nM | IC50 (human B1 receptor; [7]): 1260 nM
Compound: O=C(O)c1cc(NC(=O)C2CC2c2ccc(Cl)cc2)c(F)cc1-c1ccc(C(F)(F)F)nc1 (racemic) [Example 25, 5-({[2-(4-chlorophenyl)cyclopropyl]carbonyl}amino)-4-fluoro-2-[6-(trifluoromethyl)pyridin-3-yl]benzoic acid]

IC50 [5]: 2330 nM | IC50 (human B1 receptor; [7]): 1080 nM
Compound: O=C(O)c1cc(NC(=O)C2CC2c2ccc(Cl)cc2)cc(F)c1-c1ccc(C(F)(F)F)nc1 (racemic) [Example 24, 5-({[2-(4-chlorophenyl)cyclopropyl]carbonyl}amino)-3-fluoro-2-[6-(trifluoromethyl)pyridin-3-yl]benzoic acid]

More lines, now with the values behind:

Compound: C[C@@H]1CC[C@H](C)N1C(=O)c1ccc([C@@H](C)NC(=O)C2(NC(=O)c3cc(F)cc(C(F)(F)F)c3)CC2)c(F)c1
human metabolic stability [1]: poor | pharmacokinetic profile in rat [2]: reasonable | penetration profile [3]: acceptable | aqueous solubility [4]: reasonable

Compound: CCC(F)(F)c1ccc(-c2ccc(NC(=O)C3CC3c3ccc(Cl)cc3)cc2C(=O)O)cn1 (racemic) [Example 23, 5-({[2-(4-Chlorophenyl)cyclopropyl]carbonyl}amino)-2-[6-(1,1-difluoropropyl)pyridin-3-yl]benzoic acid]
IC50 [5]: 529 nM | IC50 (human B1 receptor; [7]): 309 nM

Compound: C[C@@H](NC(=O)C1(NC(=O)C(F)(F)F)CC1)c1ccc(-c2cccc(Cl)c2C(=O)O)cc1F [MK-0686]
pharmacokinetic profile [6]: suboptimal

Compound: O=C(O)c1cc(NC(=O)C2CC2c2cccc(Cl)c2)ccc1-c1cnn(C2CCC2)c1 (racemic) [Example 1, 5-({[2-(3-chlorophenyl)cyclopropyl]carbonyl}amino)-2-(1-cyclobutyl-1H-pyrazol-4-yl)benzoic acid]
IC50 (IL-6 secretion): 99 nM | effect on the cell viability (stimulated IMR-90 cells): no effect | IC50 (human B1 receptor; [7]): 207 nM | IC50 (human B1 receptor; presence of 0.1% BSA in assay buffer, read-out: hB1 IC50): 65 nM | IC50 (IL-8 secretion): 509 nM
